Experiments:
human TLR8 = target: T1, human TLR8 (Homo sapiens, UniProt Q9NR97); test: HEK-293 human TLR8 NF-kappaB luciferase reporter assay (CL097); format: cell-based; conditions: HEK-293 assay format; read-out: HEK/hTLR8 IC50
T1 construct: host or cells: HEK-293, then stably transfected with pNiFty2(NF-kappaB)-luciferase reporter
T1 sequence (Q9NR97 27-1041): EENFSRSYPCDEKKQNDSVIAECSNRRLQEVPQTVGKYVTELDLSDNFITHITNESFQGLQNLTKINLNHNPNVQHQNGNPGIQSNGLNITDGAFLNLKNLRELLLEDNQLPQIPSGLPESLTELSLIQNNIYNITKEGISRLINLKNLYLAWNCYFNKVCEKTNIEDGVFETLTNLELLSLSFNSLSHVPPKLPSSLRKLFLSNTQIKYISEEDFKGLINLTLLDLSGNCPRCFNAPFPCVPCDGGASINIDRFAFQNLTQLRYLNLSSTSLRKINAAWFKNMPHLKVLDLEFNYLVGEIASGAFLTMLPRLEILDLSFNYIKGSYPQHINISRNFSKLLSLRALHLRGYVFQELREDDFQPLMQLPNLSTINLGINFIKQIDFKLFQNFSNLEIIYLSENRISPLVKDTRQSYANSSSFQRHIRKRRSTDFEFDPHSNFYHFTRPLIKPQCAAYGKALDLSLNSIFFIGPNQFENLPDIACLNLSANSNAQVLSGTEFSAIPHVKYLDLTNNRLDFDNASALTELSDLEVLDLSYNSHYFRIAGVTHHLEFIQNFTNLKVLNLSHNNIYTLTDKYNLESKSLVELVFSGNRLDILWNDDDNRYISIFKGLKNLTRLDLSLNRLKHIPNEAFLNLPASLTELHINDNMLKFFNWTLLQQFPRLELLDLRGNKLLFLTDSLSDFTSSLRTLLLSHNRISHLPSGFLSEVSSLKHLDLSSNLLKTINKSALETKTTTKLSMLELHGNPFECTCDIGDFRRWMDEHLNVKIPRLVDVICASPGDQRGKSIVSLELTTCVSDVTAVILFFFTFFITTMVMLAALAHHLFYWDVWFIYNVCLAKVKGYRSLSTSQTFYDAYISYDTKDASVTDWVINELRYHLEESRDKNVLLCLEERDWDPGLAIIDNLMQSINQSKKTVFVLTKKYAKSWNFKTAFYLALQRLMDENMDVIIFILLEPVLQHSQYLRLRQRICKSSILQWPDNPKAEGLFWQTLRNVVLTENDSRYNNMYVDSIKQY
Experimental: Effects on mouse TLR7 were also compared. Cells were stimulated overnight with TLR7/8 agonist CL097 at pre-determined ED70-80: 3 ug/ml for HEK-hTLR7, 1.5 ug/ml for HEK-mTLR7 and 12 ug/ml for HEK-hTLR8, before reading luminescence intensity. Three tests were performed and IC50 value was determined using Graphpad Prism 6 nonlinear regression curve fit.
HEK-293 cells (ATCC) were engineered to stably express a NF-kappaB transcription factor inducible E-selectin (ELAM-1) luciferase reporter derived from the plasmid pGL3 (Promega) containing base pairs −2241 bp to −254 bp from the promoter of the human E-selectin gene (Accession No. NM_000450). These cells were then subsequently engineered to stably and individually express human TLR4, TLR7 or TLR9 full-length ORF cDNAs. Human TLR4 cDNA (Accession No. NM_138554) was cloned into pcDNA 3.0 expression vector (Invitrogen). TLR4 transfected cells were also engineered to express human MD-2 co-receptor [MD-2 cDNA (Accession No. NM_015364) was cloned into the pEF-BOS vector] and were supplemented with 10 nM soluble CD14 (R&D Systems) in the media to optimize LPS responsiveness. Human TLR9 cDNA (Accession No. NM_017442) was cloned into the pBluescript II KS vector (Agilent). Human TLR7 cDNA (Accession No. NM_016562) was obtained from OriGene. HEK-293 cells stably expressing human TLR8 (Accession No. NM_138636) or mouse TLR7 (Accession No. NM_133211) were purchased from InvivoGen and were then stably transfected with pNiFty2(NF-kappaB)-luciferase reporter plasmid (InvivoGen). Each cell type was plated in Dulbecco's modified Eagle's medium (DMEM) containing 10% fetal bovine serum (FBS) at a density of 2.22×10^5 cells/ml into a 384-well plate and incubated for 2 days at 37° C., 5% CO2. Varying concentrations of antagonist compounds were then added. Cells were then incubated for another 30 minutes before adding the appropriate TLR agonist as follows (final concentrations indicated): lipopolysaccharide (LPS; Sigma) at 10 ng/ml for TLR4, CL097 (InvivoGen) at 3 ug/ml for human TLR7 and TLR8 and mouse TLR7, and CvG-2006-2A [sequence: […] (SEQ ID NO: 1) with phosphorothioate backbone, synthesized by Sigma-Aldrich] at 0.6 uM for TLR9.

Human TLR7/8 = test: Human PBMC cell-based assay, TLR7/8 stimulus (RNA-Ig), cytokine ELISA; conditions: primary human PBMC assay, TLR7/8 potency; ligand not given; read-out: Human PBMCs IC50
How it was run: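 Healthy-donor human PBMC, 2×10^5 cells/well (1×10^5 in later assay), pre-treated 30 min with compound (0.1% DMSO). Stimulated 20 h at 37 °C with RNA-Ig: 26-mer U1 snRNA stem loop IV phosphorothioate RNA at 2.5 μM plus anti-ssDNA antibody (1:25 or 1 ug/ml). Supernatant cytokines by ELISA.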

SMILES | IC50 (human TLR8) | IC50 (Human TLR7/8)
C[C@@H]1CN(c2ccc(C#N)c3ncccc23)C[C@H](CNC2CCC(O)CC2)O1 (some centres unmarked) [ER-887526] | 122 nM | 50 nM
C[C@@H]1CN(c2ccc(C#N)c3ncccc23)C[C@H](COc2ccccc2F)O1 [ER-886624] | 86 nM | 23 nM
COC[C@H]1CN(c2ccc(C#N)c3ncccc23)C[C@@H](C)O1 [ER-885612] | 55 nM | 614 nM
CC1CN(c2ccc(C#N)c3ncccc23)CC(C(O)CCc2ccccc2)O1 (single isomer, unassigned) [ER-886568] | 5 nM | 79 nM
C[C@@H]1CN(c2ccc(C#N)c3ncccc23)C[C@H](C(=O)C2CCCCC2)O1 [ER-886626] | 5 nM | 80 nM
CC[C@@H]1CN(c2ccc(C#N)c3ncccc23)C[C@H](COCc2ccccc2)O1 [ER-886355] | 66 nM | 177 nM
CC(=O)N1CCN(C[C@H]2CN(c3ccc(C#N)c4ncccc34)C[C@@H](C)O2)CC1 [ER-887261] | 77 nM | 120 nM
C[C@@H]1CN(C[C@H]2CN(c3ccc(C#N)c4ncccc34)C[C@@H](C)O2)[C@H](C)CN1 [ER-887271] | 1.6 nM | 2 nM
C[C@@H]1CN(c2ccc(C#N)c3ncccc23)C[C@H](CN2CCC(C)(C)C2)O1 [ER-886869] | 161 nM | 112 nM
C[C@@H]1CN(c2ccc(C#N)c3ncccc23)C[C@H](COCc2ccccc2)O1 [ER-885618, 5-((2R,6R)-2-((benzyloxy)methyl)-6-methylmorpholino)quinoline-8-carbonitrile] | 5 nM | 23 nM
C[C@@H]1CN(c2ccc(C#N)c3ncccc23)C[C@H](CNc2ncccc2-c2ccccc2)O1 [ER-887540] | 3 nM | 1 nM
C[C@@H]1CN(c2ccc(C#N)c3ncccc23)C[C@H](CN2CCC(c3ccccc3)C2)O1 (some centres unmarked) [ER-886854] | 46 nM | 20 nM
C[C@@H]1CN(c2ccc(C#N)c3ncccc23)C[C@H](CN2CCN(c3ccccc3)CC2)O1 [ER-887258] | 175 nM | 55 nM
CC1CN(c2ccc(C#N)c3ncccc23)CC(CNC2CCCC2O)O1 (mixture of isomers) [ER-887528] | 135 nM | 56 nM
CC[C@@H]1CN(c2ccc(C#N)c3ncccc23)C[C@H](CO)O1 [ER-887199] | 77 nM | 117 nM
CC1CN(c2ccc(C#N)c3ncccc23)CC(C(O)CCc2ccccc2)O1 (single isomer, unassigned) [ER-886567] | 5 nM | 22 nM
C[C@@H]1CN(c2ccc(C#N)c3ncccc23)C[C@H](CNC2CCC2)O1 [ER-887443] | 138 nM | 32 nM
C[C@@H]1CN(c2ccc(C#N)c3ncccc23)C[C@H](CNc2ccnc(-c3ccccc3)c2)O1 [ER-887588] | 0.5 nM | 1 nM
C[C@@H]1CN(c2ccc(C#N)c3ncccc23)C[C@H](CNc2ccc(-c3ccccc3)cn2)O1 [ER-887538] | 85 nM | 48 nM
C[C@@H]1CN(c2ccc(C#N)c3ncccc23)C[C@H](CN2CCCCC2CO)O1 (some centres unmarked) [ER-886955] | 83 nM | 129 nM

SMILES | IC50 (human TLR8) | IC50 (Human TLR7/8)
C[C@@H]1CN(c2ccc(C#N)c3ncccc23)C[C@H](CN2CCC(F)(F)CC2)O1 [ER-887142] | 115 nM | 147 nM
COc1ccnc(NC[C@H]2CN(c3ccc(C#N)c4ncccc34)C[C@@H](C)O2)c1 [ER-886858] | 2 nM | 15 nM
CCC(=O)[C@H]1CN(c2ccc(C#N)c3ncccc23)C[C@@H](C)O1 [ER-886625] | 10 nM | 91 nM
CC1CCC(C)N1C[C@H]1CN(c2ccc(C#N)c3ncccc23)C[C@@H](C)O1 (some centres unmarked) [ER-886857] | 72 nM | 98 nM
C[C@@H]1CN(c2ccc(C#N)c3ncccc23)C[C@H](CCl)O1 [ER-885906] | 20 nM | 33 nM
CC1CN(c2ccc(C#N)c3ncccc23)CC(CN2CCC(F)CC2)O1 (centres unmarked) [ER-887144] | 48 nM | 63 nM
C[C@@H]1CN(c2ccc(C#N)c3ncccc23)C[C@H](CN2CC(NC(=O)c3ccccc3)C2)O1 [ER-894594] | 116 nM | 87 nM
CC(C)COC[C@H]1CN(c2ccc(C#N)c3ncccc23)C[C@@H](C)O1 [ER-885892] | 37 nM | –
N#Cc1ccc(N2CCOC(CCl)C2)c2cccnc12 (centres unmarked) [ER-879484] | 18 nM | –
CCOc1cccnc1NC[C@H]1CN(c2ccc(C#N)c3ncccc23)C[C@@H](C)O1 [ER-887587] | 1.8 nM | 1 nM
CC1CN(c2ccc(C#N)c3ncccc23)CC(C(O)C2CCCCC2)O1 (single isomer, unassigned) [ER-886532] | 30 nM | –
C[C@@H]1CN(c2ccc(C#N)c3ncccc23)C[C@H](CN2CCC(c3ccccc3)CC2)O1 [ER-887143] | 148 nM | 13 nM
C=CC(O)[C@H]1CN(c2ccc(C#N)c3ncccc23)C[C@@H](C)O1 (single isomer, unassigned) [ER-886431] | 31 nM | –
C[C@@H]1CN(c2ccc(C#N)c3ncccc23)C[C@H](CN2CCC[C@@H](O)C2)O1 [ER-886949] | 78 nM | 32 nM
C[C@@H]1CN(c2ccc(C#N)c3ncccc23)C[C@H](CN2C[C@H](C)NC[C@H]2C)O1 [ER-887272] | 2.9 nM | 2 nM
CC1CN(c2ccc(C#N)c3ncccc23)CC(CN2CCCC2C(C)C)O1 (mixture of isomers) [ER-886816] | 107 nM | –
C[C@@H]1CN(c2ccc(C#N)c3ncccc23)C[C@H](CNc2cccnc2)O1 [ER-887138] | 13 nM | 4 nM
COc1ccc(N2C[C@@H](C)O[C@@H](C)C2)c2cccnc12 [ER-885113] | 11 nM | –
C[C@@H]1CN(c2ccc(C#N)c3ncccc23)C[C@H](CN2CC[C@@H](c3ccccc3)C2)O1 [ER-886818] | 81 nM | –
